In paper PMC4876372 (Scientific Reports, 2016):
Read-outs that look alike come from different tables or passages of the source.

Tests used:
[1] = biological target: T1, His-tagged human recombinant MTH1 protein (Homo sapiens, UniProt P36639); assay: MTH1 enzyme assay (PPiLight pyrophosphate detection); assay type: biochemical; details: MTH1 2 nM
T1 construct: His; purchased ProSpec
Description: An MTH1 enzyme assay was performed as described previously with minor modifications. Briefly, test compounds were dissolved in an assay buffer [100 mM Tris-acetate, 40 mM NaCl, 10 mM Mg(OAc)2, 0.005% Tween-20, and 2 mM dithiothreitol (DTT), pH 7.5] containing His-tagged human recombinant MTH1 protein (2 nM; ProSpec). […] Relative MTH1 activity was measured by monitoring the pyrophosphate (PPi) generated through MTH1-catalyzed nucleotide triphosphate hydrolysis. The luciferase-mediated luminescence signal was recorded for 30 min using a luminometer (Molecular Devices).

[2] = biological target: T2, His-tagged human recombinant DCTPP1 protein (Homo sapiens, UniProt Q9H773); assay: DCTPP1 enzyme assay; assay type: biochemical; details: at 100 μM
T2 construct: His; purchased ATGen
T2 sequence (Q9H773 1-170): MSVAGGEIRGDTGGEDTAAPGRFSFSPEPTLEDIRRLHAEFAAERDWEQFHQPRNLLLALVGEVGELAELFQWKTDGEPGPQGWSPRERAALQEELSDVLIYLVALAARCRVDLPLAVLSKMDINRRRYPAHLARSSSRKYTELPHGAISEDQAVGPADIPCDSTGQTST
Description: Likewise, the enzymatic activities of ITPA and DCTPP1 were measured using a PPiLight Inorganic Pyrophosphate Assay kit. For the ITPA enzyme assay, we used ITPA assay buffer (100 mM Tris-acetate, 50 mM Mg(OAc)2, 0.005% Tween-20, and 2 mM DTT, pH 7.5), His-tagged human recombinant ITPA protein (5 nM; ProSpec), and ITP (25 μM). For the DCTPP1 enzyme assay, we used DCTPP1 assay buffer (100 mM Tris-acetate, 100 mM NaCl, 10 mM Mg(OAc)2, 0.005% Tween-20, and 2 mM DTT, pH 7.5), His-tagged human recombinant DCTPP1 protein (50 nM; ATGen), and deoxycytidine triphosphate (dCTP; 50 μM).
To exclude false positive compounds that inhibit PPi detection, the effects of test compounds on 10 μM Na4P2O7-induced luciferase activity were examined.

[3] = tested on: HeLa cells; assay: Cell death assay (WST-8) in HeLa cells; assay type: cell-based, human
Description: (§1) Human cancer cell lines HeLa (cervical cancer), MIA PaCa-2 (pancreatic cancer), A431 (epidermoid carcinoma), and human embryonic kidney derived cell line HEK293T were cultured in Dulbecco’s Modified Eagle’s Medium (DMEM; Invitrogen) containing 10% fetal bovine serum (FBS), penicillin G (50 units/mL) and streptomycin (50 µg/mL). Human cancer cell lines Panc-1 (pancreatic cancer) and Jurkat (T cell lymphoma) were cultured in RPMI (Gibco) containing 10% FBS, penicillin G (50 units/mL) and streptomycin (50 µg/mL). Human osteosarcoma cell line MG-63, mouse embryonic fibroblast NIH3T3 cells and its transformant NIH3T3/KRAS cells1 were cultured in DMEM (Sigma-Aldrich) containing 10% calf serum, glutamine (0.3 g/L), penicillin G (50 units/mL), and streptomycin (50 µg/mL). All cell lines were incubated at 37 °C in a humidified atmosphere containing 5% CO2.
(§2) The cells were seeded in 96-well plates, cultured overnight, and treated with test compounds for the indicated time. Subsequently, cell viability was measured by the WST-8 assay, using Cell Count Reagent SF (Nacalai Tesque) according to the manufacturer ’s instructions, with the measurement of absorbance set at 450 nm on the ARVO SX 1420 Multilabel Counter (Wallac). […]

[4] = Cell death assay (WST-8) in HeLa cells; assay type: cell-based, human; details: human, HeLa cells (cervical cancer); 72 h, WST-8; read-out: cytotoxicity IC50 against HeLa cells
Description: as §1, §2

[5] = tested on: nuclear 53BP1 foci in HeLa cells; assay: 53BP1 foci immunofluorescence (DNA damage); assay type: cell-based, human; details: 24 h, only at the higher concentrations (100-300 μM)
Description: For 53BP1, test compound–treated HeLa cells were fixed in 3% formalin in PBS containing 0.1% Triton X-100 for 15 min and permeabilized in 0.5% Triton X-100 for 5 min. After blocking with 10% FBS and 0.1% Triton X-100 in PBS for 1 h, cells were incubated sequentially with a primary antibody against 53BP1 (1:600, sc-22760; Santa Cruz Biotechnology) in blocking solution at 37 °C for 1 h and with Alexa Fluor 568-conjugated secondary antibody (1:400, Life Technologies) under the same condition.
After a quick rinse in PBS, DNA was counterstained with 0.5 µg/mL Hoechst 33342 (Sigma-Aldrich) in PBS at room temperature for 10 min. Images were analyzed on a fluorescence microscope (Delta Vision). […]

[6] = biological target: T3, porcine tubulin (Sus scrofa, UniProt P02550+P02554); assay: In vitro tubulin polymerization assay; assay type: biochemical; details: dose-dependent
T3 construct: purchased Cytoskeleton
Description: In vitro tubulin polymerization assay was performed using a tubulin polymerization assay kit (Cytoskeleton) according to the manufacturer’s instructions. Briefly, lyophilized porcine tubulin was solubilized to a final concentration of 2 mg/mL in reaction buffer containing 80 mM piperazine-N,N′-bis(2-ethanesulfonic acid) (PIPES; pH 6.9), 2 mM MgCl2, 0.5 mM ethylene glycol tetraacetic acid (EGTA), 1 mM guanosine-5′-triphosphate (GTP), 10 μM fluorescent reporter, and 20% glycerol, and kept at 4 °C. Compounds (100 × DMSO stock solutions) were added to prewarmed half-area 96-well black plates. Cold tubulin solution was added to the wells. The plate contents were mixed by shaking, and fluorescence (Ex 350 nm, Em 435 nm) was read every minute for 1 h using a fluorescence microplate reader (Molecular Devices).

[7] = tested on: 8-oxo-dG levels in DNA of HeLa cells; assay: 8-oxo-dG immunofluorescence; assay type: cell-based, human; details: 20 h, NPD compounds 100 μM, TH287 3 and 10 μM
Description: as §1, with “CO2. […]” for “CO2.”
The HeLa cells were seeded on glass coverslips in 12-well plates, cultured overnight, and treated with test compounds for the indicated time. For 8-oxo-dG, cells were fixed sequentially in 3.7% formalin for 10 min and methanol at -20 °C for 10 min, and then permeabilized in 0.5% Triton X-100 in PBS at room temperature for 5 min. After blocking with 0.5% BSA in PBS at room temperature for 30 min, cells were incubated sequentially with a primary antibody against 8-oxo-dG (5 µg/mL, MOG-020; Japan Institute for the Control of Aging) and with Alexa Fluor 488-conjugated secondary antibody (1:400, Life Technologies) under the same conditions. After a quick rinse in PBS, DNA was counterstained with 0.1 µg/mL 4′,6-diamidino-2-phenylindole (DAPI) in PBS at room temperature for 10 min. Images were analyzed with a fluorescence microscope (BX60, Olympus).

[8] = tested on: HeLa cells; assay: Cell cycle analysis (propidium iodide flow cytometry); assay type: cell-based, human; details: 24 h
Description: The HeLa cells were seeded in 12-well plates and treated with test compounds for the indicated time. Cells were harvested, washed with PBS, and incubated in propidium iodide (PI) solution containing 50 µg/mL propidium iodide, 0.1% sodium citrate, 0.2% Nonidet P-40, and 0.25 µg/mL RNase A (Nacalai Tesque) for 30 mi n in the dark.
Cellular DNA content was analyzed by fluorescence-activated cell sorting using a Cytomics FC500 (Beckman Coulter). […]

[9] = tested on: Bcl-2 phosphorylation in HeLa cells; assay: Detection of phosphorylated Bcl-2 (western blot); assay type: cell-based, human; details: 24 h, at the effective concentrations
Description: Western blot analysis for detection of phosphorylated Bcl-2 was performed as described previously with several modifications. Briefly, HeLa cells were treated with test compounds for 24 h, then harvested and lysed by sonication in a radioimmunoprecipitation assay buffer (RIPA) buffer containing 25 mM 4-(2-hydroxyethyl)-1-piperazineethanesulfonic acid (HEPES; pH 7.8), 0.5 M NaCl, 5 mM ethylenediaminetetraacetic acid (EDTA), 1.5% Triton-X-100, 1.0% sodium deoxycholate, and 0.1% sodium dodecyl sulfate (SDS), supplemented with a protease inhibitor cocktail (Roche). Samples were subjected to SDS-PAGE and transferred to a PVDF membrane. The membrane was incubated with a primary antibody against Bcl-2 (1:500, #M0887; DAKO) and a horseradish peroxidase-labeled secondary antibody (1:2000, 170-6516; Bio-Rad) in sequence. Then, they were visualized with Fusion Solo S using the SuperSignal West Pico Chemiluminescence Substrate. Phosphorylated Bcl-2 was detected on the upper side of unphosphorylated Bcl-2 by the mobility shift. As a loading control, α-tubulin was detected in the same samples by using a primary antibody against α-tubulin (1:2000, T9026; Sigma-Aldrich).

[10] = tested on: intracellular microtubule networks in HeLa cells; assay: alpha-tubulin immunofluorescence (interphase microtubules); assay type: cell-based, human; details: 6 h, at cytotoxic concentrations
Description: For α-tubulin, immunofluorescence was performed as described previously with several modifications2. Briefly, test compound–treated HeLa cells were fixed in 3.7% formalin for 1 min and methanol at -20 °C for 5 min sequentially, and permeabilized in 0.5% Triton X-100 in PBS for 5 min. After blocking with 0.5% BSA in PBS at room temperature for 30 min, cells were incubated sequentially with a primary antibody against α-tubulin (1:200, T9026; Sigma-Aldrich) in the blocking solution at 37 °C for 1 h, and with Alexa Fluor 488-conjugated secondary antibody (1:400, Life Technologies) at 37 °C for 40 min. After a quick rinse in PBS, DNA was counterstained with 0.5 µg/mL Hoechst 33342 in PBS at room temperature for 10 min. Images were analyzed using a fluorescence microscope (Delta Vision). […]
2 Futamura, Y. et al. Morphobase, an encyclopedic cell morphology database, and […]

[11] = tested on: other members of the Nudix protein family, nucleoside triphosphate pyrophosphatases; set-up: method as in PMID 24695224; details: cited from earlier work
[12] = tested on: 87 enzymes, GPCRs, kinases, ion channels, and transporters; set-up: method as in PMID 24695224; details: at 10 μM; with few exceptions; cited from earlier work
[13] = tested on: patient-derived malignant melanoma cells; set-up: method as in PMID 24695224; details: cited from earlier work
[14] = substrate 2-OH-dATP (8.3 μM), read-out: IC50 of MTH1 inhibitory activity, 2-OH-dATP
[15] = substrate 8-oxo-dGTP (13.2 μM), read-out: IC50 of MTH1 inhibitory activity, 8-oxo-dGTP

T3 sequence (P02550 whole entry): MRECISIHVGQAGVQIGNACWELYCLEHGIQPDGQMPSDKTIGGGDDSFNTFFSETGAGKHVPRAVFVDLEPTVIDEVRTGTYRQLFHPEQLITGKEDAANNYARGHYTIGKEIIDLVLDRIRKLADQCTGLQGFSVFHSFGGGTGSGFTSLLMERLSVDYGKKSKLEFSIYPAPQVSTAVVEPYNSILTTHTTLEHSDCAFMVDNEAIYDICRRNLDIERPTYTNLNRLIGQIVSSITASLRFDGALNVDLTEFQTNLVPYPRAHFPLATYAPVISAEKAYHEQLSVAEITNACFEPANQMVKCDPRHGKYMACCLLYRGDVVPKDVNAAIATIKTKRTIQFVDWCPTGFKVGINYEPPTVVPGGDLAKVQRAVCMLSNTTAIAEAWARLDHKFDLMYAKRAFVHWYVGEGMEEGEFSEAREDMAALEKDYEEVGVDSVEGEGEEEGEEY
T3 sequence (P02554 whole entry): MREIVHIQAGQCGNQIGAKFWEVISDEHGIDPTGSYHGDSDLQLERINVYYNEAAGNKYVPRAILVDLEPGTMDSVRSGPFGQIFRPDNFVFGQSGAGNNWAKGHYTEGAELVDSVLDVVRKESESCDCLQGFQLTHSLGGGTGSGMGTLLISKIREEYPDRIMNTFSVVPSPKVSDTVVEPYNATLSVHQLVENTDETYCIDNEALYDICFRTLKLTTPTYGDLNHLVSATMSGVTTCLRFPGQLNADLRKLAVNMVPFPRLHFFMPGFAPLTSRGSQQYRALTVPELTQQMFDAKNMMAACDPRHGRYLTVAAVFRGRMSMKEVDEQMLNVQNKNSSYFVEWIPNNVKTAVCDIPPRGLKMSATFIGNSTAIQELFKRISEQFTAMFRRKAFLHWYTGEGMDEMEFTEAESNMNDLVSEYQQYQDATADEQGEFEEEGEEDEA

SMILES	IC50 [1, 14] [µM]	IC50 [1, 15] [µM]	effect on enzymatic activity of DCTPP1 [2]	effect on tubulin polymerization in vitro [6]	population of HeLa cells in G2/M phase [8]	Bcl-2 phosphorylation [9]	effect on intracellular microtubule networks [10]	inhibition of other Nudix family members and nucleoside triphosphate pyrophosphatases [11]	further results
C[C@H](Oc1cc(-c2cnn(C3CCNCC3)c2)cnc1N)c1c(Cl)ccc(F)c1Cl [(S)-crizotinib, reference compound]			slightly inhibited						IC50 ([3]; 72 h, WST-8, read-out: cytotoxicity IC50 against HeLa cells): 13 µM
CNc1cc(-c2cccc(Cl)c2Cl)nc(N)n1 [TH287, reference compound]	0.0036 ± 0.0017	0.0022 ± 0.0003		inhibited tubulin polymerization	increased the population of HeLa cells in G2/M phase	induced Bcl-2 phosphorylation	disrupted intracellular microtubule networks	did not inhibit	accumulation of 8-oxo-dG [7]: increased 8-oxo-dG levels
Nc1nc(NC2CC2)cc(-c2cccc(Cl)c2Cl)n1 [TH588]				inhibited tubulin polymerization	increased the population of HeLa cells in G2/M phase	induced Bcl-2 phosphorylation	disrupted intracellular microtubule networks	did not inhibit	effect against 87 enzymes, GPCRs, kinases, ion channels, and transporters [12]: little effect; tumor growth in mouse xenograft model [13]: suppressed tumor growth

Second part, led by results:

IC50 [1, 14] [µM]	IC50 [1, 15] [µM]	SMILES	effect on enzymatic activity of DCTPP1 [2]	effect on tubulin polymerization in vitro [6]	population of HeLa cells in G2/M phase [8]	Bcl-2 phosphorylation [9]	effect on intracellular microtubule networks [10]	inhibition of other Nudix family members and nucleoside triphosphate pyrophosphatases [11]	further results
0.75 ± 0.4	0.32 ± 0.04	COc1ccc2nc3c(c(C)nn3C)c(NCCOCCO)c2c1 [SCH51344, reference compound]	slightly inhibited						IC50 [3]: 5.5 µM
6.7	3.3	CC(C)OCCCNc1ncnc2[nH]cnc12 [NPD15095]							
> 1000	> 1000	Cn1cnc2c(NCc3ccco3)ncnc21 [NPD8880]							IC50 at 72 h [4]: 650 µM; DNA damage (nuclear 53BP1 foci formation) [5]: induced DNA damage
